Data on two compounds can be found in patent US8709482B2, “Stabilised prostaglandin composition” (Ferring B.V., priority 2005, dated 2014).

Series [1] is described as follows: Stability study of misoprostol oil at 25° C. (HPLC content, physical form). The format is physicochemical. The method, then: Misoprostol stability was tested over a period of 6 months. The misoprostol tested was the commercially available misoprostol in the form of an oil. Misoprostol was stored at a temperature of 25° C., and misoprostol content measured using HPLC at 0, 2, 4, 8 weeks and 3 and 6 months.

Series [2] can be described thus: Comparative stability at 25° C. of dinoprostone bulk drug crystal and dinoprostone in polyurethane hydrogel. Type of series: physicochemical. The source says:
Measurements are taken at 0, 1, 2, 3, and 6 months. The following results are for comparative purposes only and are not intended to form part of the present invention.

Turning to `CCCCC(C)(O)C/C=C/[C@H]1[C@H](O)CC(=O)[C@@H]1CCCCCCC(=O)OC` (mixture of isomers) [Misoprostol, (11α,13E)-(±)-11,16-Dihydroxy-16-methyl-9-oxoprost-13-en-1-oic acid methyl ester], the Misoprostol content in series [1] (0) was found to be 101.59 % w/w; in series [1] (2 w), 99.61 % w/w; in series [1] (3 m), 93.63 % w/w; in series [1] (4 w) it was 98.59 % w/w; in series [1] (6 m), 57.07 % w/w; in series [1] (8 w) it was 96.87 % w/w. Besides, the Physical form result in series [1] (0) is listed as “Colourless”; in series [1] (2 w), “Colourless”; in series [1] (3 m) it was “Straw”; in series [1] (4 w) it was “Colourless”; in series [1] (6 m), “Yellow”; in series [1] (8 w), “Clear”. Besides, the “Stability (FIG. 1)” value in series [1] (in the absence of polyurethane hydrogel) was “degrades with time”.

Regarding `CCCCC[C@H](O)/C=C/[C@H]1[C@H](O)CC(=O)[C@@H]1C/C=C\CCCC(=O)O` [Dinoprostone], the “% potency” value in series [2] (0 months) is on record as 100 % potency; in series [2] (1 month), 96 % potency; in series [2] (3 months), 89 % potency; in series [2] (6 months), 75 % potency.
